In ChEMBL document CHEMBL4184281, “Pharmacology and in vivo efficacy of pyridine-pyrimidine amides that inhibit microtubule polymerization” (Bioorg Med Chem Lett, 2018):
Activity calls are given as the source filed them. No cut-off for these calls is given here.

Assays:
Breast carcinoma cell [1] = assay: Antitumor activity against chemo-refractory disease patient-derived breast cancer cells xenografted in NOD/SCID mouse assessed as tumor growth inhibition at 10 mg/kg, po qd administered via gavage for 15 days; type: functional, organism-based; details: Homo sapiens
in vitro [2] = details: human, Caco-2
Description: Apparent intrinsic permeability in human Caco2 cells from basolateral to apical side after 120 mins by mass spectrometry

[3] = Half life in mouse liver microsomes; type: ADME, microsome
[4] = Stability in human plasma assessed as parent compound remaining after 2 hrs relative to initial time; type: ADME, cell-free; details: read-out: Stability
MDA-MB-436 [5] = assay: Antiproliferative activity against paclitaxel-resistant human MDA-MB-436 cells 20A clone up to 1000 nM after 72 hrs by ATPlite assay; type: functional, cell-based
[6] = Half life in dog liver microsomes; type: ADME, Canis lupus familiaris, microsome
Cytochrome P450 3A4 = Cytochrome P450 3A4 (Homo sapiens, UniProt P08684); assay: Inhibition of CYP3A4 (unknown origin); type: ADME
[7] = Half life in human liver microsomes; type: ADME, microsome
MFE-296 [8] = assay: Antitumor activity against human MFE296 cells xenografted in nude BALB/c mouse assessed as tumor growth inhibition at 3.75 to 7.5 mg/kg, po qd administered via gavage for 10 days relative to control; type: functional
Cytochrome P450 2C9 = Cytochrome P450 2C9 (Homo sapiens, UniProt P11712); assay: Inhibition of CYP2C9 (unknown origin); type: ADME
BT-549 [9] = assay: Antiproliferative activity against paclitaxel-resistant human BT549 cells 10A clone up to 1000 nM after 72 hrs by ATPlite assay; type: functional, cell-based
Cytochrome P450 2D6 = Cytochrome P450 2D6 (Homo sapiens, UniProt P10635); assay: Inhibition of CYP2D6 (unknown origin); type: ADME
MDA-MB-436 [10] = assay: Antiproliferative activity against paclitaxel-resistant human MDA-MB-436 cells 20B clone up to 1000 nM after 72 hrs by ATPlite assay; type: functional, cell-based
Mus musculus [11] = assay: Toxicity in nude BALB/c mouse xenografted with human MFE296 cells assessed as body weight loss at 15 mg/kg, po qd administered via gavage for 10 days measured after 6 days; type: organism-based; details: in vivo, 144 h
SNU-16 [12] = assay: Antitumor activity against human SNU16 cells xenografted in nude BALB/c mouse assessed as tumor growth inhibition relative to control; type: functional
[13] = Stability in human plasma assessed as parent compound remaining after 24 hrs relative to initial time; type: ADME, cell-free; details: read-out: Stability
Cytochrome P450 1A2 = molecular target: T1, Cytochrome P450 1A2 (Homo sapiens, UniProt P05177); assay: Inhibition of CYP1A2 (unknown origin); type: ADME
T1 sequence (P05177 whole entry): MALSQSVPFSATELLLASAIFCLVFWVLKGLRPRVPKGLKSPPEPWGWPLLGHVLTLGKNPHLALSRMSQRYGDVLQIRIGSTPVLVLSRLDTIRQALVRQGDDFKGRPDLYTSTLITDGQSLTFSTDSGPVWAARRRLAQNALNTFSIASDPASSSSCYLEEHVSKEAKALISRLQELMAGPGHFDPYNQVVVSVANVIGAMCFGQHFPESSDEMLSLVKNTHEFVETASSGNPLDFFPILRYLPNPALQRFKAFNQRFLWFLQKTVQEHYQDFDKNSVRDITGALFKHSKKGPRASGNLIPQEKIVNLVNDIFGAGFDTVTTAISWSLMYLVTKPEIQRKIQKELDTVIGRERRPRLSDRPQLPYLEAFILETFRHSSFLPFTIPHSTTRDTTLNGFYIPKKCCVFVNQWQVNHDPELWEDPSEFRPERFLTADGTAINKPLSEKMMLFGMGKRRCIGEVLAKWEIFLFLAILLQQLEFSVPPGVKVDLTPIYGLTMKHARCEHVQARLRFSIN

[14] = Protein binding in plasma (unknown origin); type: ADME, cell-free; details: read-out: PPB (converted)
Breast carcinoma cell [15] = assay: Antitumor activity against chemo-refractory disease patient-derived breast cancer cells xenografted in NOD/SCID mouse assessed as tumor regression at 10 mg/kg, po qd administered via gavage for 60 days; type: functional, organism-based; details: Homo sapiens
A2780 [16] = assay: Antitumor activity against human A2780 cells xenografted in nude BALB/c mouse assessed as tumor growth inhibition at 15 mg/kg, po administered every other day measured up to 12 days post dose; type: functional, organism-based
Mus musculus [17] = assay: Toxicity in nude BALB/c mouse xenografted with human A2780 cells assessed as change in body weight at 15 mg/kg, po administered every other day measured up to 12 days post dose; type: organism-based; details: in vivo, 288 h
[18] = Half life in rat liver microsomes; type: ADME, microsome
Cytochrome P450 2C19 = Cytochrome P450 2C19 (Homo sapiens, UniProt P33261); assay: Inhibition of CYP2C19 (unknown origin); type: ADME
Hs-578T [19] = assay: Antiproliferative activity against paclitaxel-resistant human Hs 578T cells 20B clone up to 1000 nM after 72 hrs by ATPlite assay; type: functional, cell-based
[20] = Stability in human plasma assessed as parent compound remaining after 8 hrs relative to initial time; type: ADME, cell-free; details: read-out: Stability
MDA-MB-436 [21] = assay: Antiproliferative activity against human MDA-MB-436 cells up to 1000 nM after 72 hrs by ATPlite assay; type: functional, cell-based
Hs-578T [22] = assay: Antiproliferative activity against paclitaxel-resistant human Hs 578T cells 10C clone up to 1000 nM after 72 hrs by ATPlite assay; type: functional, cell-based
MFE-296 [23] = assay: Antitumor activity against human MFE296 cells xenografted in nude BALB/c mouse assessed as tumor growth inhibition at 15 mg/kg, po qd administered via gavage for 10 days; type: functional, organism-based
[24] = Stability in human plasma assessed as parent compound remaining after 75 mins relative to initial time; type: ADME, cell-free; details: read-out: Stability
Hs-578T [25] = assay: Antiproliferative activity against human Hs 578T cells up to 1000 nM after 72 hrs by ATPlite assay; type: functional, cell-based
[26] = Efflux ratio of apparent intrinsic permeability in human Caco2 cells after 120 mins by mass spectrometry; type: ADME, cell-based; details: Caco-2
SNU-16 [27] = assay: Antitumor activity against human SNU16 cells harboring luciferase orthotopically implanted in gastric mucosa of Balb/c nude mouse assessed as tumor growth inhibition at 20 mg/kg, po qd administered for 5 days per week for 3 weeks starting from 1 week post tumor implantation by luminescence imaging method; type: functional, organism-based
[28] = Toxicity in mouse; type: organism-based; details: in vivo
Mus musculus [29] = assay: Toxicity in nude BALB/c mouse xenografted with human MFE296 cells assessed as body weight loss at 3.75 to 7.5 mg/kg, po qd administered via gavage for 10 days; type: organism-based; details: in vivo, 240 h
[30] = Toxicity in mouse administered as single po dose; type: organism-based; details: in vivo
[31] = Tmax in CD-1 mouse administered as single po dose by mass spectrometry; type: ADME, organism-based; details: in vivo
Mus musculus [32] = assay: Toxicity in nude BALB/c mouse xenografted with human A2780 cells assessed as change in body weight at 20 mg/kg, po qd measured up to 12 days post dose; type: organism-based; details: in vivo, 288 h
BT-549 [33] = assay: Antiproliferative activity against human BT549 cells up to 1000 nM after 72 hrs by ATPlite assay; type: functional, cell-based
Mus musculus [34] = assay: Toxicity in NOD/SCID mouse xenografted with chemo-refractory disease patient-derived breast cancer cells at 10 mg/kg, po qd administered via gavage for 60 days; type: organism-based; details: in vivo, 1440 h
in vitro [35] = details: human, Caco-2; remark: listed apart in the source
Description: Apparent intrinsic permeability in human Caco2 cells from apical to basolateral side after 120 mins by mass spectrometry

[36] = Unbound fraction in plasma (unknown origin); type: ADME, cell-free
A2780 [37] = assay: Antitumor activity against human A2780 cells xenografted in nude BALB/c mouse assessed as tumor growth inhibition at 20 mg/kg, po qd measured up to 12 days post dose; type: functional, organism-based
[38] = Stability in human plasma assessed as parent compound remaining after 4 hrs relative to initial time; type: ADME, cell-free; details: read-out: Stability
[39] = Drug recovery in plasma (unknown origin); type: ADME, cell-free

Sequence of Cytochrome P450 2C19 (P33261 whole entry): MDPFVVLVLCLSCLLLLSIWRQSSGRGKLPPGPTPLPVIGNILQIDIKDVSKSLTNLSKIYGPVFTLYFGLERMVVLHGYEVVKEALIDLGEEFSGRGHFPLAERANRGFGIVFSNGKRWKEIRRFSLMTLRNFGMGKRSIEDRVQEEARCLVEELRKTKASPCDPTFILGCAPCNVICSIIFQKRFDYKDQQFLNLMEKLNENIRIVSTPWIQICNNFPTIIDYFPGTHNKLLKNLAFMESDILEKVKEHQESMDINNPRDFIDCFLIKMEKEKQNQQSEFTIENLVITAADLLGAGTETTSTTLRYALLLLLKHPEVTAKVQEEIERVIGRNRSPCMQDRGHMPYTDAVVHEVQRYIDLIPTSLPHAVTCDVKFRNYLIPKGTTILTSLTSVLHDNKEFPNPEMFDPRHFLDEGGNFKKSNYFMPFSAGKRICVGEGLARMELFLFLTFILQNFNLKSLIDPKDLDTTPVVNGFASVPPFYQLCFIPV
Sequence of Cytochrome P450 2D6 (P10635 whole entry): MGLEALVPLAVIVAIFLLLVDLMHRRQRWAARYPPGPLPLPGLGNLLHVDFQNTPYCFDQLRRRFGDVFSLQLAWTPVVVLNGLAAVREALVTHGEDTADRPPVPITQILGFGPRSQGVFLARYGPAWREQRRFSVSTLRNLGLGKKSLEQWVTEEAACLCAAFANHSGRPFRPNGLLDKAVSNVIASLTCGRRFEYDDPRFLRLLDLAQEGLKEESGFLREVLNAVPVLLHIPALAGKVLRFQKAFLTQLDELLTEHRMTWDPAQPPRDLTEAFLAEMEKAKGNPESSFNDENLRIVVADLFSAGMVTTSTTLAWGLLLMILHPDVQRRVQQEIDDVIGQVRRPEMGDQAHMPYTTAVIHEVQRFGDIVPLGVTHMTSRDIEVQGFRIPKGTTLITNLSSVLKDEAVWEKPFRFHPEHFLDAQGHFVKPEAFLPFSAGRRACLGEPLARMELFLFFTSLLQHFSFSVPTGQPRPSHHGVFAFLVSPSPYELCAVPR
Sequence of Cytochrome P450 3A4 (P08684 whole entry): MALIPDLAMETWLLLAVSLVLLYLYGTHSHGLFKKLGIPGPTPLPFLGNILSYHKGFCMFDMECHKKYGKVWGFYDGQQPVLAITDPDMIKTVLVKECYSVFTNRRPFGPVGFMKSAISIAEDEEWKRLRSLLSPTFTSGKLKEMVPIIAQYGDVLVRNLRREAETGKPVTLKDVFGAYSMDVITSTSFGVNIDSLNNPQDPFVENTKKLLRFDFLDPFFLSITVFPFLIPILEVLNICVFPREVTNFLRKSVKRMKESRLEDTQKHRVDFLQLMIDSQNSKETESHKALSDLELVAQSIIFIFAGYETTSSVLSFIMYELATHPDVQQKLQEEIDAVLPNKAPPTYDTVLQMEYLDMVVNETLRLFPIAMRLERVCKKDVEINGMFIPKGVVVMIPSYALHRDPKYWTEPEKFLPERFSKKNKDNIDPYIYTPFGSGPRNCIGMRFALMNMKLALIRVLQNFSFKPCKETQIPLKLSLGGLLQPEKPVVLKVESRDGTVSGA
Sequence of Cytochrome P450 2C9 (P11712 whole entry): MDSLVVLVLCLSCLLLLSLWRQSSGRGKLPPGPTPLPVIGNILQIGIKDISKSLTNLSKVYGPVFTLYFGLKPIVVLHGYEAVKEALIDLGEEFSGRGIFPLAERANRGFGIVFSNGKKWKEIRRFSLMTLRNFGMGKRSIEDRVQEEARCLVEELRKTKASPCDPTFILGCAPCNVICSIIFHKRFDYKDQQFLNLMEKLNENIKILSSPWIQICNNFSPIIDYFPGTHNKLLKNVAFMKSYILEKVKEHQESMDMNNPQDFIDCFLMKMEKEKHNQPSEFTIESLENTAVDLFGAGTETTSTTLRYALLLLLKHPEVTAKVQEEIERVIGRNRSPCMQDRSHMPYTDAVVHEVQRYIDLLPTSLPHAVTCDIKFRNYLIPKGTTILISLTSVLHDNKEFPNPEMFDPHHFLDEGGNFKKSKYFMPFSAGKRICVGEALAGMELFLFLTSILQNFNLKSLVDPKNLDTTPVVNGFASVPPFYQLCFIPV

Cc1ncc(C(=O)Nc2ccc(-c3cccc(S(=O)(=O)C4CC4)c3)cn2)cn1
TGI (Breast carcinoma cell [1]): Active | Papp B→A at 2 h (in vitro [2]): 26.1 ×10⁻⁶ cm/s | half-life [3]: 67.4 min | remaining at 2 h [4]: 111% | Activity (MDA-MB-436 [5]): Active | half-life [6]: 49.9 min | IC50 (Cytochrome P450 3A4): > 30 µM | half-life [7]: 144 min | TGI (MFE-296 [8]): >85% | IC50 (Cytochrome P450 2C9): > 30 µM | Activity (BT-549 [9]): Active | IC50 (Cytochrome P450 2D6): > 30 µM | Activity (MDA-MB-436 [10]): Active | Activity (Mus musculus [11]): Toxic | TGI (SNU-16 [12]): 109% | remaining at 24 h [13]: 115% | IC50 (Cytochrome P450 1A2): > 30 µM | fraction unbound [14]: 0.022 | Activity (Breast carcinoma cell [15]): Active | TGI (A2780 [16]): Active | Activity (Mus musculus [17]): Non-Toxic | half-life [18]: 79.6 min | IC50 (Cytochrome P450 2C19): > 30 µM | Activity (Hs-578T [19]): Active | remaining at 8 h [20]: 102% | Activity (MDA-MB-436 [21]): Active | Activity (Hs-578T [22]): Active | TGI (MFE-296 [23]): Active | remaining at 1.25 h [24]: 93% | Activity (Hs-578T [25]): Active | efflux ratio at 2 h [26]: 1.02 | TGI (SNU-16 [27]): Active | MTD [28]: ≤ 6 mg/kg | Activity (Mus musculus [29]): Non-Toxic | MTD [30]: ≤ 20 mg/kg | Tmax [31]: ≤ 15 min | Activity (Mus musculus [32]): Toxic | Activity (BT-549 [33]): Active | Activity (Mus musculus [34]): Non-Toxic | Papp A→B at 2 h (in vitro [35]): 25.7 ×10⁻⁶ cm/s | fraction unbound [36]: 0.022 | TGI (A2780 [37]): Active | remaining at 4 h [38]: 103% | Drug recovery [39]: 87.2%
